# In patent US8486429B2, “Storage stable formulation and a process for its preparation” (priority 2005, dated 2013):
# Like-named read-outs stand apart in the source and are kept apart here.
# Experiments:
# [1] = mammals, oral administration, within 24 hours, almost entirely in the urine; cited from earlier work
# [2] = cited from earlier work; for DT 50 (calculated) (hydrolysis): 20° C.; for DT50 (hydrolysis): 40° C.
# [3] = test system: insect; assay: Synergistic insecticidal effect of Imidacloprid + Acephate (mortality, Colby's method); assay type: in vivo
# Experimental: Synergism can be calculated by using the Colby's method i.e. the expected (or predicted) response of the combination is calculated by taking the product of the observed response for each individual component of the combination when applied alone divided by 100 and subtracting this value from the sum of observed response for each component when applied alone. Synergism of the combination is then determined by comparing the observed response of the combination to the expected (or predicted) response as calculated from the observed response of each individual component alone. If the observed response of the combination is greater than the expected (or predicted) response then the combination is said to be synergistic and falls within the definition of synergistic effect. (Colby, S. R., Weeds, 1967(15), p. 20-22)
# [4] = test system: crop plants; settings: in vivo; cited from earlier work
# [5] = cited from earlier work
# [6] = AHS stability study in trilaminated pouches, 14 days at 30, 45 and 54° C.: active content and pH of 1% aq. solution/suspension; assay type: physicochemical; settings: for extent to which Acephate degrades: 54° C.
# Experimental: Acephate technical of 97.5% purity was taken and kept in AHS stability study at 30, 45 and 54° C. in trilaminated pouches. The results of the AHS experiment for Acephate Technical are seen in the following Tables 1, 2 and 3.
# 40 gm Acephate technical of 97.5% purity was taken from plant and mixed with 10 gm of citric acid by using laboratory made mixture to obtained homogenious powder and is then kept in AHS at 30, 45 and 54° C. in trilaminated pouches.
# 40 gm Acephate technical of 97.5% purity was taken from plant and mixed with 5 gm of citric acid by using laboratory made mixture to obtained homogenious powder and is the kept in AHS at 30, 45 and 54° C. in trilaminated pouches.
# 48 gm Acephate technical of 97.5% purity was taken from plant and mixed with 2 gm of citric acid by using laboratory made mixture to obtained homogenious powder and is the kept in AHS at 30, 45 and 54° C. in trilaminated pouches.
# Acephate technical of 97.5% purity was taken from the plant and mixed in a laboratory mixer by adding 1% water and was then kept in AHS stability study at 30° C., 45° C. and 54° C. in trilaminated pouches.
# Acephate technical of 97.5% purity was taken from the plant and mixed in laboratory mixer by adding 1% water 4% citric acid and was then kept in AHS stability study at 30, 45 and 54° C. in trilaminated pouches.
# Imidacloprid technical was taken from the plant and is kept in AHS stability study at 30, 45 and 54° C. in trilaminated pouches.
# Imidacloprid technical was taken from the plant and mixed in laboratory mixer by adding 1% water and is then is kept in AHS stability study at 45 and 54° C. in trilaminated pouches.
# 40 gm of Imidacloprid technical and 10 gm of citric acid was mixed in laboratory mixer and was then kept in AHS stability study at 30, 45 and 54° C. in trilaminated pouches,
# 45 gm of Imidacloprid technical and 05 gm of citric acid was mixed in laboratory mixer and was then kept in AHS stability study at 30° C., 45° C. and 54° C. in trilaminated pouches.
# 48 gm of Imidacloprid technical and 2 gm of citric acid was mixed in laboratory mixer and was then kept in AHS stability study at 30, 45 and 54° C. in trilaminated pouches.
# 49.5 gm of Imidacloprid technical and 0.5 gm of citric acid was mixed in laboratory mixer and was then kept in AHS stability study at 30, 45 and 54° C. in trilaminated pouches.
# Imidacloprid technical was taken from plant and mixed in laboratory mixer by adding 10 gm citric acid and 2 gm water and is then is kept in AHS stability study at 30, 45 and 54° C. in trilaminated pouches,
# Imidacloprid technical was taken from the plant and mixed in laboratory mixer by adding 5 gm citric acid and 2 gm water and was then kept in AHS stability study at 30, 45 and 54° C. in trilaminated pouches.
# 53 gm of Acephate technical was taken from the plant and mixed in a laboratory mixer by adding 3 gm imidacloprid without coating and without any citric acid. This was then kept in AHS stability study at 30, 45 and 54° C. in trilaminated pouches.
# 53 gm of Acephate technical was taken from the plant and mixed in a laboratory mixer by adding 3 gm imidacloprid without encapsulation and with 2.2 gm of citric acid . This was then kept in AHS stability study at 30, 45 and 54° C. in trilaminated pouches.
# In a laboratory plough shear mixture 291.5 gm of Imidacloprid of particle size ranging from 15 micron to 50 micron was charged and blended by operating only the plough. Then 204 gm PEG-8000 was heated in a separate vessel at 65° C. for 15 min. […]
# [7] = test system: rats; settings: cited from earlier work
# [8] = test system: rats; settings: cited from earlier work; remark: listed apart in the source
# [9] = test system: rats; settings: cited from earlier work; remark: listed apart in the source
# [10] = test system: mice; settings: cited from earlier work
# [11] = test system: rabbits; settings: cited from earlier work
# [12] = in vivo; cited from earlier work
structure (smiles),measurement,setting,value
"CCN(CC)C(=O)C(Cl)=C(C)OP(=O)(OC)OC [Phosphamidon, 2-chloro-2-diethylcarbamoyl-1-methylvinyldimethylphosphate]",% of the dose excreted,[1],85-90%
same,DT 50 (calculated) (hydrolysis),[2]; pH 5,60 days
same,DT 50 (calculated) (hydrolysis),[2]; pH 7,54 days
same,DT 50 (calculated) (hydrolysis),[2]; pH 9,12 days
"COP(=O)(NC(C)=O)SC (stereo not shown) [Experiment 1, O,S-dimethylacetylphosphoramidothioate]",Observed Mortality %,"[3]; Imidacloprid 0 ppm, Acephate 600 ppm",52.50%
same,Observed Mortality %,"[3]; Imidacloprid 0 ppm, Acephate 700 ppm",60.00%
same,Observed Mortality %,"[3]; Imidacloprid 0 ppm, Acephate 800 ppm",70.00%
same,phytotoxicity,[4],non-phytotoxic to most crop plants
same,solubility in ethanol,[5]; 20° C.,> 100 mg/mL
same,solubility in water,[5]; 20° C.,about 790 g/l
same,extent to which Acephate degrades,"[6]; presence of 1% moisture, absence of Citric acid, initial pH of 4.70",12.84%
same,extent to which Acephate degrades,"[6]; presence of Citric acid and 1% moisture, initial pH 3.18",6.88%
same,DT50 (hydrolysis),[2]; pH 3,710 h
same,DT50 (hydrolysis),[2]; pH 9,60 h
C/C(=N\C#N)N(C)Cc1ccc(Cl)nc1 [Acetamiprid],acute oral LD50,[7]; female rats,146 mg/kg
same,acute oral LD50,[7]; male rats,217 mg/kg
same,inhalation LC50 (4 h),[8]; male and female rats,> 0.29 mg/L
same,Acute percutaneous LD50,[9]; male and female rats,> 2000 mg/kg
same,solubility in organic solvents,"[5]; acetone, methanol, ethanol, dichloromethane, chloroform, acetonitrile and tetrahydrofuron",soluble
same,stability in buffered solutions,"[2]; pH 4, 5, 7",Stable
same,stability,[2]; pH 9 and 45° C.,Degraded slowly
same,stability under sunlight,[2]; sunlight,Stable
same,acute oral LD50,[10]; female mice,184 mg/kg
same,acute oral LD50,[10]; male mice,198 mg/kg
same,irritation to skin and eyes,[11],Non irritating
"O=[N+]([O-])NC1=NCCN1Cc1ccc(Cl)nc1 [Experiment 7, 1-(6-chloro-3-pyridylmet-hyl)-N-nitroimidazolidin-2-yldeneamine]",skin sensitisation,[12],Not a skin sensitiser
same,Observed Mortality %,"[3]; Imidacloprid 24 ppm, Acephate 0 ppm",55.00%
same,Observed Mortality %,"[3]; Imidacloprid 27 ppm, Acephate 0 ppm",69.25%
same,Observed Mortality %,"[3]; Imidacloprid 30 ppm, Acephate 0 ppm",72.10%
same,inhalation LC50 (4 h),"[8]; female rats, aerosol",> 5323 mg/m^3 air
same,Acute percutaneous LD50 (24 h),"[9]; rats, 24 h",> 5000 mg/kg
same,solubility in hexane,[5]; 20° C.,< 0.1 mg/mL
same,Stability of Imidacloprid,"[6]; pH of 2.68, Imidacloprid:citric acid 40:10",still more unstable
same,Stability of Imidacloprid,"[6]; pH of 3.60, Imidacloprid:Citric acid 49.5:0.5",unstable
same,Stability of Imidacloprid,[6]; pH of 5.90,stable
same,Stability of imidacloprid reported in literature,[2]; pH of 5.60,stable
same,irritation to skin and eyes,[11],Non irritating
